Data on 2 molecules can be found in US20230390409A1, “FAP-ACTIVATED SERUM EXTENDED HALF-LIFE THERAPEUTIC CONJUGATES” (Avacta Life Sciences Limited, priority 2020, published 2023).

One data set relates to mouse tumor model. The experiment in a line: EC50 / maximum tolerated dose studies, mice. The class given is in vivo. The protocol: (§1) Half-maximal effective concentration (EC50) studies were undertaken to examine the difference between mice and rats administered talabostat alone (FIG. 4A) and mice and rats administered the therapeutic conjugates comprising talabostat (FIG. 4B). When talabostat is administered alone, the talabostat maximum tolerated dose (MTD) is about 3 mg/m^2 in a mouse tumor model and 0.18 mg/m^2 in rats. That is, the talabostat MTD is 1/17 the tumor model EC50 (FIG. 4A). In contrast, when the talabostat is administered as part of the therapeutic conjugate, the MTD is 160 mg/m^2 in the mouse model and the EC50 for rats is greater than 500 mg/m^2 (FIG. 4B). Talabostat, as part of the therapeutic conjugate, can be administered to rats and mice at therapeutically effective doses.

In another data set the test system is rats. The experiment in a line: EC50 / maximum tolerated dose studies, rats. The class given is in vivo, rat. As for the experimental part:
as §1

Data set [1] deals with G-CSF. Conditions: VbP alone, known; cited from earlier work.
Data set [2] has as its system G-CSF. The experiment in a line: G-CSF serum cytokine response in nontumor-bearing BALB/c mice (ELISA). The following applies: 200 μg/mouse intraperitoneal, six hours after dosing (FIG. 23). The class given is in vivo. The protocol: The FAP-activated prodrug G-CSF serum cytokine response in nontumor-bearing BALB/c mice was examined. Female BALB/c mice of 11-12 weeks of age were injected intraperitonially with vehicle (PBS), 42CQ-6501, or 42CQ-6501+MSA at 200 μg/mouse, in groups of 5 mice per treatment.
While cytokine recruitment is believed to play an important role in tumor immunity, its presence in the serum represents a systemic response, which can lead to unwanted adverse effects. […] 42CQ is an AFFIMER® polypeptide designed to bind to serum albumin (SEQ ID NO: 133). Consequently, the 42CQ-based conjugates (with 6501) were prepared with or without prebinding to MSA to determine whether there was an evident difference between the two formulations.
Six hours after dosing, blood was collected to measure G-CSF in the serum using a mouse G-CSF Quantikine ELISA kit.
Background: In an ELISA, binding on a coated surface is turned into a signal by an enzyme label.

Consider `CC(C)[C@H](N)C(=O)N1CCC[C@H]1B(O)O` [Talabostat, Val-boroPro], for which the results for the “maximum tolerated dose (MTD)” value with mouse tumor model (mouse tumor model) and in the data set with rats were “about 3 mg/m^2” and 0.18 mg/m^2, respectively. In addition, the “talabostat MTD relative to the tumor model EC50” value with mouse tumor model (talabostat administered alone (FIG. 4A)) is recorded as 1/17. Besides, in the data set on G-CSF [1], the “serum G-CSF response” value was “large serum G-CSF response”.

B1: 42CQ-6501: 42CQ, an AFFIMER polypeptide binding serum albumin (SEQ ID NO: 133), conjugated with 6501 (conjugate)
chain: MIPRGLSEAKPATPEIQEIVDKVKPQLEEKTNETYGKLEAVQYKTQVLANFFQRRWPGSTNYYIKVRAGDNKYMHLKVFNGPWKFRNTDRGADRVLTGYQVDKNKDDELTGFAAAGGRAEQKLISEEDLGCAENLYFQGGAAGHHHHHH
modifications: conjugated with 6501
Take B1: the “serum concentration of G-CSF” value in the data set on G-CSF [2] is reported as “significant increase”.
